Source: ChEMBL document CHEMBL2417501, “Synthesis of 4-aminoquinoline-pyrimidine hybrids as potent antimalarials and their mode of action studies” (Eur J Med Chem, 2013)
pEC50: −log10 of the molar value.

Test system: Vaccinia virus
Experiment: Antiviral activity against Vaccinia virus infected in human HEL cells assessed as reduction of virus-induced cytopathogenicity
Type: functional, organism-based
Details: Orthopoxvirus vaccinia

Row | Compound | pEC50
1 | CCOC(=O)c1c(C)nc(NCCCCNc2ccnc3cc(Cl)ccc23)nc1-c1ccc(Cl)cc1 | < 4.70
2 | Nc1nc2c(ncn2COC(CO)CO)c(=O)[nH]1 [GANCICLOVIR] | < 4.00
3 | CCOC(=O)c1cnc(NCCCCNc2ccnc3cc(Cl)ccc23)nc1C | < 4.00
4 | CCOC(=O)c1c(C)nc(NCCCCNc2ccnc3cc(Cl)ccc23)nc1-c1ccccc1[N+](=O)[O-] | < 5.40
5 | Cc1nc(NCCCCNc2ccnc3cc(Cl)ccc23)nc(-c2ccccc2)c1C(=O)OC(C)C | < 5.40
6 | CCOC(=O)c1c(C)nc(OCCCNc2ccnc3cc(Cl)ccc23)nc1-c1ccccc1 | < 4.00
7 | Nc1ccn(C[C@@H](CO)OCP(=O)(O)O)c(=O)n1 [CIDOFOVIR] | 4.77
8 | CCOC(=O)c1c(C)nc(NCCCCNc2ccnc3cc(Cl)ccc23)nc1-c1ccc(F)cc1 | < 4.00
9 | O=c1[nH]c(=O)n([C@H]2C[C@H](O)[C@@H](CO)O2)cc1/C=C/Br [BRIVUDINE] | 5.30
10 | COC(=O)c1c(C)nc(NCCCNc2ccnc3cc(Cl)ccc23)nc1-c1ccccc1 | < 4.70
11 | Nc1nc2c(ncn2COCCO)c(=O)[nH]1 [ACYCLOVIR] | < 3.60
